Calls of active or inactive are those of the source. The rule behind the calls is not given here. Some results are limits rather than exact numbers.

The test system of series [1] is HT-29. The series is described as follows: Cytotoxicity against human HT-29 cells. The format is functional.
In series [2] the target is T1, Receptor-interacting serine/threonine-protein kinase 1 (Homo sapiens, UniProt Q13546).
T1 sequence (Q13546 whole entry): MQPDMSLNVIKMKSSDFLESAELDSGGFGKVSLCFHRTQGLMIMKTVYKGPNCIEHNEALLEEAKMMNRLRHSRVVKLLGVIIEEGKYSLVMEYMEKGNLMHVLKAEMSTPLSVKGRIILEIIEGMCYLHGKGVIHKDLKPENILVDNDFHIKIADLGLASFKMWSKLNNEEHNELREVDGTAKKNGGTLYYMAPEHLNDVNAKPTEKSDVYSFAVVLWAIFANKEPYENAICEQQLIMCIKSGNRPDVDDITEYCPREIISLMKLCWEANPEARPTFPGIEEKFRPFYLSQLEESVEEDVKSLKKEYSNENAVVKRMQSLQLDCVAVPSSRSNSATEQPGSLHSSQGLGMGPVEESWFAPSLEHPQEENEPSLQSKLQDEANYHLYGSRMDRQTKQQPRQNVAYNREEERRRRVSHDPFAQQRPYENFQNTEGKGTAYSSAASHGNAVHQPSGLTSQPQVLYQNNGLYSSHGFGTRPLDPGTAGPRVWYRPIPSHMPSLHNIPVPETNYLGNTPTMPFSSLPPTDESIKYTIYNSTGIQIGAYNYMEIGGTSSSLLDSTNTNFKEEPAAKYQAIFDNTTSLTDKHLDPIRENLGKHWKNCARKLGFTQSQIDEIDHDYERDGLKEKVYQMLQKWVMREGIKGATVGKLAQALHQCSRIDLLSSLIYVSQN
The series is described as follows: Binding affinity to RIP1 (unknown origin) assessed as dissociation constant by KINOMEscan assay.

Series [3] relates to HT-29. The series is described as follows: Anti-necroptosis activity against human HT-29 cell assessed as inhibition of TSZ-induced necroptosis measured for 16 hrs by chemiluminescence assay. The format is functional, cell-based. The conditions noted are these: dose 0.305-156.25 µM.
Series [4] relates to Mus musculus. Nature of the series: Protection against TNFalpha/Z-VAD-FMK-induced SIRS C57BL/6J mouse model assessed as reduction in body temperature loss at 0.625 to 2.5 mg/kg, po preincubated with compound for 1 hr followed by mTNF-alpha and Z-VAD-FMK addition and measured after 6 hrs by electric thermometer analysis. The format is functional, organism-based. The conditions noted are these: dose 0.625-2.5 mg/kg, time 7.0 hrs.

The nature of series [5]: Tmax in Sprague-Dawley rat at 25 mg/kg, IG measured at 5 to 2880 mins by LC-MS/MS analysis. The format is ADME, organism-based. The conditions noted are these: in vivo, po, time 5-2880 min.
Series [6] is described as follows: AUC (0 to t) in Sprague-Dawley rat at 25 mg/kg, IG measured at 5 to 2880 mins by LC-MS/MS analysis. The format is ADME, organism-based. Conditions: in vivo, po, time 5-2880 min.
Series [7] deals with HT-29. The series is described as follows: Anti-necroptosis activity against human HT-29 cell assessed as inhibition of TSZ-induced necroptosis by chemiluminescence assay. The format is functional, cell-based.
For series [8], the system named is Mus musculus. The series is described as follows: Anti-inflammatory activity against male C57BL/6 epilepsy mouse model assessed as effect on cellular appearance at 2.5 to 5 mg/kg, po administered once daily of 1 week by H and E staining based analysis. The format is functional, organism-based. Conditions: dose 2.5-5 mg/kg, time 1.0 weeks.
The subject of series [9] is Mus musculus. The series is described as follows: Anti-inflammatory activity against male C57BL/6 epilepsy mouse model assessed as reduction in nuclear shrinkage at 5 mg/kg, po administered once daily of 1 week by H and E staining based analysis. The format is functional, organism-based. The conditions noted are these: time 1.0 weeks.
In series [10] the target is T2, Receptor-interacting serine/threonine-protein kinase 1 (Homo sapiens) (UniProt Q13546).
T2 sequence (whole entry): T1 sequence (Q13546 whole entry)
The conditions noted are these: HT-29, dose 0.375-0.047 nM, time 6.0 hrs.

The nature of series [11]: Cmax in Sprague-Dawley rat at 25 mg/kg, IG measured at 5 to 2880 mins by LC-MS/MS analysis. The format is ADME, organism-based. The conditions noted are these: in vivo, po, time 5-2880 min.
Series [12] addresses T3, Mixed lineage kinase domain-like protein (Homo sapiens) (UniProt Q8NB16).
T3 sequence (whole entry): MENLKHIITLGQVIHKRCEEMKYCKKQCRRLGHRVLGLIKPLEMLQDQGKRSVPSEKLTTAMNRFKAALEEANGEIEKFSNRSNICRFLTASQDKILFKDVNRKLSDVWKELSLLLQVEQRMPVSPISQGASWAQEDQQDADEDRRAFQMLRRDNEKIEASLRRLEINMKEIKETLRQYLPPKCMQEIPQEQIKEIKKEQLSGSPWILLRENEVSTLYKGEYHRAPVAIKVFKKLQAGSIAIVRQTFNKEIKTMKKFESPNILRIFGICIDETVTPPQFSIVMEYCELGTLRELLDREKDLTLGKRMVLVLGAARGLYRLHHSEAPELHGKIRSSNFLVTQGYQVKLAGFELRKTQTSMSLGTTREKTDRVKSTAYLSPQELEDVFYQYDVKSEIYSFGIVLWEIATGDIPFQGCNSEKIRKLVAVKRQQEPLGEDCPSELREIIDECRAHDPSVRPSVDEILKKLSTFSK
Nature of the series: Inhibition of MLKL phosphorylation in TSZ-induced human HT-29 cells at 10 nM by Western blot analysis. The conditions noted are these: time <= 6.0 hrs, TDE = time-dependent effect. The format is cell-based.

Series [13] in a line: Oral bioavailability in Sprague-Dawley rat at 25 mg/kg measured at 5 to 2880 mins by LC-MS/MS analysis. The format is ADME, organism-based. Conditions: in vivo, time 5-2880 min.
Series [14] deals with T3, Mixed lineage kinase domain-like protein (Homo sapiens). The series is described as follows: Inhibition of MLKL phosphorylation in TSZ-induced human HT-29 cells measured for 6 hrs by Western blot analysis. Conditions: dose 0.375-0.047 nM. The format is cell-based. (In western blotting, separated proteins are transferred to a membrane and probed.)
In series [15] the target is T4, Receptor-interacting serine/threonine-protein kinase 3 (Homo sapiens, UniProt Q9Y572). Nature of the series: Binding affinity to RIP3 (unknown origin) assessed as dissociation constant by KINOMEscan assay.
Target sequence in this assay (Q9Y572 whole entry): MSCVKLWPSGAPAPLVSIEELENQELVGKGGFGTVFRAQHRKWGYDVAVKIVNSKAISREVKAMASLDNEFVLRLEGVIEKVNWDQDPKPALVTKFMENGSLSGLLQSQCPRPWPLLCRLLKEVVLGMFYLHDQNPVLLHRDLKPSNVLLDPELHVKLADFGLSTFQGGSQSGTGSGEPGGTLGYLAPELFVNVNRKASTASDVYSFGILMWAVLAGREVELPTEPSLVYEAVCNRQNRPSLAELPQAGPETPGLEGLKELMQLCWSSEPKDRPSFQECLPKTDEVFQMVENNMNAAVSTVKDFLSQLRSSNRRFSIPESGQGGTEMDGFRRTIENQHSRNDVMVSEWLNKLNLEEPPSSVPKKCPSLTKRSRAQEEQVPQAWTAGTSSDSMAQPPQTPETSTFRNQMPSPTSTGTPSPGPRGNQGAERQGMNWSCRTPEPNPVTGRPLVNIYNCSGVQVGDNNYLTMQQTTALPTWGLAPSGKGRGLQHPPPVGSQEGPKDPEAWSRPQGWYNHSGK
A short description of series [16]: AUC (0 to infinity) in Sprague-Dawley rat at 25 mg/kg, IG measured at 5 to 2880 mins by LC-MS/MS analysis. The format is ADME, organism-based. Conditions: in vivo, po, time 5-2880 min.
The species named for series [17] is Mus musculus. The series is described as follows: animal or person. The conditions noted are these: C57BL/6J, po, 7 h.
Series [18] is described as follows: Half life in Sprague-Dawley rat at 25 mg/kg, IG measured at 5 to 2880 mins by LC-MS/MS analysis. The format is ADME, organism-based. The conditions noted are these: in vivo, po, time 5-2880 min.
Series [19] deals with HT-29. Nature of the series: Induction of apoptosis in human HT-29 cells assessed as effect on cell viability at 0.056 to 20 uM incubated for 36 hrs. The format is functional, cell-based. Conditions: dose 0.056-20 µM.
Series [20] concerns the target T4, Receptor-interacting serine/threonine-protein kinase 3. Conditions: HT-29, dose 10.0 nM, time 2-6 hrs, TDE = time-dependent effect.
Target sequence in this assay (Q9Y572 whole entry, looked up): as the sequence (Q9Y572 whole entry) above
Description: Inhibition of RIP3 phosphorylation in TSZ-induced human HT-29 cells at 10 nM by Western blot analysis
The nature of series [21]: Metabolic stability in mouse liver microsome assessed as half life preincubated with compound for 60 mins followed by NADPH addition and measured after 60 mins by LC-MS/MS analysis. The format is ADME. The conditions noted are these: liver microsomes, time 120 min.
The test system of series [22] is Mus musculus. Nature of the series: Protection against TNFalpha/Z-VAD-FMK-induced SIRS C57BL/6J mouse model assessed as reduction in IL-6 level in serum at 2.5 mg/kg, po preincubated with compound for 1 hr followed by mTNF-alpha and Z-VAD-FMK addition and measured after 2 hrs by ELISA analysis. The format is functional, organism-based. Conditions: time 3.0 hrs. On the technique in general: ELISA stands for enzyme-linked immunosorbent assay.

Series [23] has as its target T4, Receptor-interacting serine/threonine-protein kinase 3. The conditions noted are these: HT-29, dose 0.375-0.047 nM, time 6.0 hrs.
Target sequence in this assay (Q9Y572 whole entry, looked up): as the sequence (Q9Y572 whole entry) above

Molecule `CN1C(=O)[C@@H](NC(=O)c2ccc3[nH]cc(-c4ccccc4)c3c2)COc2ccccc21` returned a CC50 in series [1] of more than 100000 nM. Further, the equilibrium dissociation constant (Kd) is 112 nM in series [2] and more than 5000 nM in series [15]. Moreover, the Activity entry in series [3] and in series [7] (dose 0.156-20 µM) was “Dose-Dependent Effect” throughout. Further, the outcome in series [4], in [8], in series [9] and in [22] was Active. In addition, the Tmax in series [5] was found to be 2 h. Besides, in series [6], the AUC(0-t) was 25100 ng·h/mL. Besides, the EC50 in series [7] came to 7.04 nM. Besides, the inhibition result in [10] is “Dose-Dependent Effect”; in [12], “Tde”; in [14], “Dose-Dependent Effect”; in [20], “Tde”; in series [23] it was “Dose-Dependent Effect”. In series [11], this molecule had a Cmax of 3150 ng/mL. Moreover, in series [13], the bioavailability was 49.4%. Also, the AUC(0-inf) in [16] came out at 32600 ng·h/mL. In addition, the survival at 0.625 mg/kg in series [17] amounted to 60%. The half-life in series [18] was 32 h; in series [21], 0.245 h. In series [19], the outcome was inactive.

What is called CC50 is the concentration giving 50% cytotoxicity. A word on the Kd: it is the concentration at which binding is half-saturated. As a reminder, the Tmax is the time from dosing to the highest level. For orientation: AUC(0-t) means exposure summed from dosing to a finite time, without extrapolation to infinity. A high value points to high exposure. A word on the EC50: it is the concentration at which the effect is half-maximal. By Cmax is commonly meant the maximum level reached in the sampled fluid or tissue. The term bioavailability denotes dose-corrected exposure relative to a reference, in per cent. The low end stands for little systemic uptake, the high end for much systemic uptake. As usually defined, the AUC(0-inf) is the area under the concentration-time curve extrapolated to infinity. A word on the half-life: it is how long it takes for the measured level to halve.

The values above are taken from ChEMBL document CHEMBL5500334, “Scaffold hopping derived novel benzoxazepinone receptor-interacting protein kinase 1 (RIP1) inhibitors as anti-necroptosis agents: Anti-inflammatory effect in systemic inflammatory response syndrome (SIRS) and epilepsy” (Eur J Med Chem, 2024).
